Source: ChEMBL document CHEMBL1201862, “PubChem BioAssay data set” (2004)
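These data come from cells grown in 96-well plates and exposed to compound for 48 hours at five concentrations. The concentration for 50% growth inhibition is given as GI50.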 Activity calls are given as the source filed them. Rule as the data show it: active = GI50 up to about 1.1 µM and inactive = higher.

How the values were obtained:
Assay in all cases: inhibition of tumour cell growth, NCI panel, 48 h
[1] = system: A498
[2] = system: SN12C
[3] = system: Malme-3M
[4] = system: RPMI-8226
[5] = system: T47D
[6] = system: DU-145
[7] = system: EKVX
[8] = system: HOP-62
[9] = system: SF-268
[10] = system: Hs-578T
[11] = system: UACC-257
[12] = system: CAKI-1
[13] = system: SF-539
[14] = system: PC-3
[15] = system: SK-MEL-28
[16] = system: SK-MEL-5
[17] = system: HT-29
[18] = system: LOX IMVI
[19] = system: UO-31
[20] = system: HCC 2998

Measured: GI50

CC(C)c1ccccc1[S+]([O-])c1ccccc1C(C)(C)O (configuration not stated)
inactive: [1] 20 µM | [2] > 100 µM | [3] > 100 µM | [4] 42.6 µM | [5] > 100 µM | [6] > 100 µM | [7] > 100 µM | [8] 22.5 µM | [9] > 100 µM | [10] 50.4 µM | [11] > 100 µM | [12] > 100 µM | [13] > 100 µM | [14] > 100 µM | [15] > 100 µM | [16] 27.2 µM | [17] 96.2 µM | [18] 69.5 µM

O=CN1CCN(CC(O)CN2CCCCC2)CC1 (configuration not stated)
inactive: [1] > 100 µM | [2] > 100 µM | [3] > 100 µM | [4] > 100 µM | [5] > 100 µM | [6] > 100 µM | [7] > 100 µM | [8] > 100 µM | [19] > 100 µM | [9] > 100 µM | [10] > 100 µM | [11] > 100 µM | [12] > 100 µM | [14] > 100 µM | [15] > 100 µM | [16] > 100 µM | [17] > 100 µM | [18] > 100 µM

COC1CC(C)(NC(C)=O)C2OC(c3ccccc3)OCC2O1 (configuration not stated)
inactive: [1] > 100 µM | [2] > 100 µM | [3] > 100 µM | [4] > 100 µM | [5] > 100 µM | [6] > 100 µM | [7] > 100 µM | [8] > 100 µM | [19] > 100 µM | [9] > 100 µM | [10] > 100 µM | [11] > 100 µM | [12] > 100 µM | [13] > 100 µM | [14] > 100 µM | [15] > 100 µM | [16] > 100 µM | [17] > 100 µM | [18] > 100 µM

O=C1CSCC(=O)Nc2ccccc2N1
inactive: [1] > 100 µM | [2] > 100 µM | [3] > 100 µM | [4] > 100 µM | [5] > 100 µM | [6] > 100 µM | [7] > 100 µM | [8] > 100 µM | [19] > 100 µM | [9] > 100 µM | [10] > 100 µM | [11] > 100 µM | [12] > 100 µM | [13] > 100 µM | [14] > 100 µM | [15] > 100 µM | [16] > 100 µM | [17] > 100 µM | [18] > 100 µM

Cc1ccnc(NC(NC(=O)c2ccccc2)(C(F)(F)F)C(F)(F)F)c1
inactive: [2] > 100 µM | [3] > 100 µM | [4] 18.2 µM | [5] > 100 µM | [6] > 100 µM | [7] > 100 µM | [8] > 100 µM | [19] > 100 µM | [9] > 100 µM | [20] > 100 µM | [10] > 100 µM | [11] > 100 µM | [12] > 100 µM | [13] > 100 µM | [14] > 100 µM | [15] > 100 µM | [16] > 100 µM | [17] > 100 µM | [18] > 100 µM

O=C(CCCn1ccnc1[N+](=O)[O-])NCCn1cncc1[N+](=O)[O-]
inactive: [1] > 100 µM | [2] > 100 µM | [3] > 100 µM | [4] > 100 µM | [5] > 100 µM | [6] > 100 µM | [7] > 100 µM | [8] > 100 µM | [19] > 100 µM | [9] > 100 µM | [10] > 100 µM | [11] > 100 µM | [12] > 100 µM | [13] > 100 µM | [14] > 100 µM | [15] > 100 µM | [16] > 100 µM | [17] > 100 µM | [18] > 100 µM
